Literature values in patent US9662414B2, “Dressing system” (Edixomed Limited, priority 2013, dated 2017).

Conditions: healthy 70 kg-adult

COC(=O)[C@H]1[C@@H](OC(=O)c2ccccc2)C[C@@H]2CC[C@H]1N2C [cocaine]
generally accepted safe dosage for topical anaesthesia: 200 mg

CCCCNc1ccc(C(=O)OCCN(C)C)cc1 [tetracaine]
generally accepted safe dosage for topical anaesthesia: 50 mg

CCN(CC)CC(=O)Nc1c(C)cccc1C [lidocaine]
generally accepted safe dosage for topical anaesthesia: 750 mg
